Laboratory results as given in patent US8574563B2 (Bristol-Myers Squibb Company, priority 2006, dated 2013).

Test system: HCV 1b-377-neo replicon cells
Experiment: HCV replicon assay, HCV 1b-377-neo replicon cells (1b FRET)
Assay type: cell-based, Hepatitis C virus genotype 1b
Conditions: Hepatitis C virus, HCV 1b-377-neo replicon cells; HCV 1b genotype; read-out: EC50 range against HCV 1b (Table 2, Range)
Procedure, shortened: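 Compounds were tested in genotype 1b subgenomic replicon cells carrying a neomycin marker, alongside a matched replicon line with an NS5A Y2065H substitution that confers resistance to a reference NS5A inhibitor.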

Row | Structure (SMILES) | EC50
1 | CC1(O)CCN([C@@H](C(=O)N2CCC[C@H]2c2ncc(-c3ccc(-c4ccc(-c5cnc([C@@H]6CCCN6C(=O)[C@@H](c6ccccc6)N6CCCCC6)[nH]5)cc4)cc3)[nH]2)c2ccccc2)CC1 [Example 107-2, 4-methyl-1-((1R)-2-oxo-1-phenyl-2-((2S)-2-(5-(4′-(2-((2S)-1-((2R)-2-phenyl-2-(1-piperidinyl)acetyl)-2-pyrrolidinyl)-1H-imidazol-5-yl)-4-biphenylyl)-1H-imidazol-2-yl)-1-pyrrolidinyl)ethyl)-4-piperidinol] | 0.001 to 0.999 nM
2 | CN(C)[C@@H](C(=O)N1CCC[C@H]1c1ncc(-c2ccc(-c3ccc(-c4cnc([C@@H]5CCCN5C(=O)[C@@H](c5ccccc5Cl)N(C)C)[nH]4)cc3)cc2)[nH]1)c1ccccc1 [Example 107-35, (1R)-1-(2-chloro-phenyl)-2-((2S)-2-(5-(4′-(2-((2S)-1-((2R)-2-(dimethylamino)-2-phenylacetyl)-2-pyrrolidinyl)-1H-imidazol-5-yl)-4-biphenylyl)-1H-imidazol-2-yl)-1-pyrrolidinyl)-N,N-dimethyl-2-oxoethanamine] | 0.001 to 0.999 nM
3 | CCN(CC)[C@@H](C(=O)N1CCC[C@H]1c1ncc(-c2ccc(-c3ccc(-c4cnc([C@@H]5CCCN5C(=O)[C@H](Nc5ncccn5)C(C)C)[nH]4)cc3)cc2)[nH]1)c1ccccc1 [cj-11k, N-((1R)-1-(((2S)-2-(5-(4′-(2-((2S)-1-((2R)-2-(diethylamino)-2-phenylacetyl)-2-pyrrolidinyl)-1H-imidazol-5-yl)-4-biphenylyl)-1H-imidazol-2-yl)-1-pyrrolidinyl)carbonyl)-2-methylpropyl)-2-pyrimidinamine] | 0.001 to 0.999 nM
4 | CCC(=O)N[C@H](C(=O)N1CCC[C@H]1c1nc(-c2ccc(-c3ccc(-c4c[nH]c([C@@H]5CCCN5C(=O)[C@@H](NC(=O)CC)C(C)C)n4)cc3)cc2)c[nH]1)C(C)C [Example F61, N-((1S)-2-methyl-1-(((2S)-2-(4-(4′-(2-((2S)-1-((2S)-3-methyl-2-(propionylamino)butanoyl)-2-pyrrolidinyl)-1H-imidazol-4-yl)-4-biphenylyl)-1H-imidazol-2-yl)-1-pyrrolidinyl)carbonyl)propyl)propanamide] | 1 to 99 nM
5 | CCN(CC)[C@@H](C(=O)N1CCC[C@H]1c1ncc(-c2ccc(-c3ccc(-c4cnc([C@@H]5CCCN5C(=O)[C@@H](NC5=NCCN5)C(C)C)[nH]4)cc3)cc2)[nH]1)c1ccccc1 [cj-11g, N-((1S)-1-(((2S)-2-(5-(4′-(2-((2S)-1-((2R)-2-(diethylamino)-2-phenylacetyl)-2-pyrrolidinyl)-1H-imidazol-5-yl)-4-biphenylyl)-1H-imidazol-2-yl)-1-pyrrolidinyl)carbonyl)-2-methylpropyl)-4,5-dihydro-1H-imidazol-2-amine] | 1 to 99 nM
6 | COC(=O)N[C@H](C(=O)N1CCC[C@H]1c1ncc(-c2ccc(-c3ccc(-c4cnc([C@@H]5CCCN5C(=O)[C@@H](NC(=O)OC)C(C)(C)O)[nH]4)cc3)cc2)[nH]1)C(C)C [Example M105] | 1 to 99 nM
7 | CCN(CC)[C@H](C)C(=O)N1CCC[C@H]1c1ncc(-c2ccc(-c3ccc(-c4cnc([C@@H]5CCCN5C(=O)[C@H](NC(=O)OC)c5ccccc5)[nH]4)cc3)cc2)[nH]1 [Example M63, methyl ((1R)-2-((2S)-2-(5-(4′-(2-((2S)-1-(N,N-diethyl-D-alanyl)-2-pyrrolidinyl)-1H-imidazol-5-yl)-4-biphenylyl)-1H-imidazol-2-yl)-1-pyrrolidinyl)-2-oxo-1-phenylethyl)carbamate] | 1 to 99 nM
8 | COC(=O)N[C@@H](C(=O)N1CCC[C@H]1c1ncc(-c2ccc(-c3ccc(-c4cnc([C@@H]5CCCN5C(=O)C(c5cccc(C(F)(F)F)c5)N(C)C)[nH]4)cc3)cc2)[nH]1)c1ccccc1 (stereo partly drawn) [Example 84-54, methyl ((1R)-2-((2S)-2-(5-(4′-(2-((2S)-1-((dimethylamino)(3-(trifluoromethyl)phenyl)acetyl)-2-pyrrolidinyl)-1H-imidazol-5-yl)-4-biphenylyl)-1H-imidazol-2-yl)-1-pyrrolidinyl)-2-oxo-1-phenylethyl)carbamate] | 0.001 to 0.999 nM
9 | CCN(CC)[C@H]1CC[C@@H](C(=O)N2CCC[C@H]2c2ncc(-c3ccc(-c4ccc(-c5cnc([C@@H]6CCCN6C(=O)[C@@H](NC(=O)OC)C(C)C)[nH]5)cc4)cc3)[nH]2)CC1 [cj-71, methyl ((1S)-1-(((2S)-2-(5-(4′-(2-((2S)-1-((cis-4-(diethylamino)cyclohexyl)carbonyl)-2-pyrrolidinyl)-1H-imidazol-5-yl)-4-biphenylyl)-1H-imidazol-2-yl)-1-pyrrolidinyl)carbonyl)-2-methylpropyl)carbamate] | 0.001 to 0.999 nM
10 | COC(=O)N[C@@H](C(=O)N1CCC[C@H]1c1ncc(-c2ccc(-c3ccc(-c4cnc([C@@H]5CCCN5C(=O)[C@H](O)c5ccccc5)[nH]4)cc3)cc2)[nH]1)c1ccccc1 [Example 43, methyl ((1R)-2-((2S)-2-(5-(4′-(2-((2S)-1-((2R)-2-hydroxy-2-phenylacetyl)-2-pyrrolidinyl)-1H-imidazol-5-yl)-4-biphenylyl)-1H-imidazol-2-yl)-1-pyrrolidinyl)-2-oxo-1-phenylethyl)carbamate] | 0.001 to 0.999 nM
11 | O=C(Cc1cccs1)N1CCC[C@H]1c1ncc(-c2ccc(-c3ccc(-c4cnc([C@@H]5CCCN5C(=O)[C@@H](c5ccccc5)N5CCCCC5)[nH]4)cc3)cc2)[nH]1 [Example 107-30, 1-((1R)-2-oxo-1-phenyl-2-((2S)-2-(5-(4′-(2-((2S)-1-(2-thienylacetyl)-2-pyrrolidinyl)-1H-imidazol-5-yl)-4-biphenylyl)-1H-imidazol-2-yl)-1-pyrrolidinyl)ethyl)piperidine] | 0.001 to 0.999 nM
12 | CCN(CC)[C@@H](C(=O)N1CCC[C@H]1c1ncc(-c2ccc(-c3ccc(-c4cnc([C@@H]5CCCN5C(=O)[C@H](NC(=O)OC)c5ccccc5)[nH]4)cc3)cc2)[nH]1)c1ccccc1 [Example M47, methyl ((1R)-2-((2S)-2-(5-(4′-(2-((2S)-1-((2R)-2-(diethylamino)-2-phenylacetyl)-2-pyrrolidinyl)-1H-imidazol-5-yl)-4-biphenylyl)-1H-imidazol-2-yl)-1-pyrrolidinyl)-2-oxo-1-phenylethyl)carbamate] | 1 to 99 nM
13 | COC(=O)N[C@H](C(=O)N1CCC[C@H]1c1ncc(-c2ccc(-c3ccc(-c4cnc([C@@H]5CCCN5C(=O)[C@@H](Nc5noc(N)n5)C(C)C)[nH]4)cc3)cc2)[nH]1)C(C)C [cj-16, methyl ((1S)-1-(((2S)-2-(5-(4′-(2-((2S)-1-(N-(5-amino-1,2,4-oxadiazol-3-yl)-L-valyl)-2-pyrrolidinyl)-1H-imidazol-5-yl)-4-biphenylyl)-1H-imidazol-2-yl)-1-pyrrolidinyl)carbonyl)-2-methylpropyl)carbamate] | 0.001 to 0.999 nM
14 | CN(C)[C@@H](C(=O)N1CSC[C@H]1c1ncc(-c2ccc(-c3ccc(-c4cnc([C@@H]5CSCN5C(=O)[C@@H](c5ccccc5)N(C)C)[nH]4)cc3)cc2)[nH]1)c1ccccc1 [Example 148, (1R,1′R)-2,2′-(4,4′-biphenyldiylbis(1H-imidazole-5,2-diyl(4R)-1,3-thiazolidine-4,3-diyl))bis(N,N-dimethyl-2-oxo-1-phenylethanamine)] | 1 to 99 nM
15 | COC(=O)NC(C(=O)N1CCC[C@H]1c1nc(-c2ccc(-c3ccc(-c4cnc([C@@H]5CCCN5C(=O)C(NC(=O)OC)C5CCOCC5)[nH]4)cc3)cc2)c[nH]1)C1CCOCC1 (stereo partly drawn) [Example F39, methyl (2-((2S)-2-(4-(4′-(2-((2S)-1-(((methoxycarbonyl)amino)(tetrahydro-2H-pyran-4-yl)acetyl)-2-pyrrolidinyl)-1H-imidazol-5-yl)-4-biphenylyl)-1H-imidazol-2-yl)-1-pyrrolidinyl)-2-oxo-1-(tetrahydro-2H-pyran-4-yl)ethyl)carbamate] | 0.001 to 0.999 nM
16 | COC(=O)N[C@@H](C(=O)N1CCC[C@H]1c1ncc(-c2ccc(-c3ccc(-c4cnc([C@@H]5CCCN5C(=O)[C@@H]5C[C@@H](F)CN5C)[nH]4)cc3)cc2)[nH]1)c1ccccc1 [Example 70, methyl ((1R)-2-((2S)-2-(5-(4′-(2-((2S)-1-((4R)-4-fluoro-1-methyl-L-prolyl)-2-pyrrolidinyl)-1H-imidazol-5-yl)-4-biphenylyl)-1H-imidazol-2-yl)-1-pyrrolidinyl)-2-oxo-1-phenylethyl)carbamate] | 1 to 99 nM
17 | COC(=O)N[C@@H](C(=O)N1C[C@H](O)C[C@H]1c1nc(-c2ccc(-c3ccc(-c4c[nH]c([C@@H]5C[C@@H](O)CN5C(=O)[C@H](NC(=O)OC)c5ccccc5)n4)cc3)cc2)c[nH]1)c1ccccc1 [Example 24-11, dimethyl (4,4′-biphenyldiylbis(1H-imidazole-5,2-diyl((2S,4R)-4-hydroxy-2,1-pyrrolidinediyl)((1R)-2-oxo-1-phenyl-2,1-ethanediyl)))biscarbamate] | 1 to 99 nM
18 | CNC(=O)N[C@@H](C(=O)N1C[C@H](O)C[C@H]1c1ncc(-c2ccc(-c3ccc(-c4cnc([C@@H]5C[C@@H](O)CN5C(=O)[C@H](NC(=O)NC)c5ccccc5)[nH]4)cc3)cc2)[nH]1)c1ccccc1 [Example 24-13, N,N″-(4,4′-biphenyldiylbis(1H-imidazole-5,2-diyl((2S,4R)-4-hydroxy-2,1-pyrrolidinediyl)((1R)-2-oxo-1-phenyl-2,1-ethanediyl)))bis(3-methylurea)] | 100 to 999 nM
19 | COC(=O)N[C@H](C(=O)N1[C@H](c2ncc(-c3ccc(-c4ccc(-c5cnc([C@@H]6C[C@@H]7C[C@@H]7N6C(=O)[C@@H](NC(=O)OC)C6CC6)[nH]5)cc4)cc3)[nH]2)C[C@@H]2C[C@@H]21)C1CC1 [Example M127, dimethyl (4,4′-biphenyldiylbis(1H-imidazole-5,2-diyl(1S,3S,5S)-2-azabicyclo[3.1.0]hexane-3,2-diyl((1S)-1-cyclopropyl-2-oxo-2,1-ethanediyl)))biscarbamate] | 1 to 99 nM
20 | COC(=O)N[C@@H](C(=O)N1CCC[C@H]1c1ncc(-c2ccc(-c3ccc(-c4cnc([C@@H]5CCCN5C(=O)CC5CCCCC5)[nH]4)cc3)cc2)[nH]1)c1ccccc1 [Example 84-75, methyl ((1R)-2-((2S)-2-(5-(4′-(2-((2S)-1-(cyclohexylacetyl)-2-pyrrolidinyl)-1H-imidazol-5-yl)-4-biphenylyl)-1H-imidazol-2-yl)-1-pyrrolidinyl)-2-oxo-1-phenylethyl)carbamate] | 1 to 99 nM
